Test results as given in patent publication US11306076B2, “Silibinin lipoic acid ester with hepatoprotective activity and a method of preparing the same” (XI'AN TAIKOMED PHARMACEUTICAL TECHNOLOGY CO., LTD., priority 2020, dated 2022).

Experiments:
[1] = DPPH radical scavenging activity assay; format: biochemical; conditions: for DPPH Clearance rate: n = 3
Source text: 2,2-Diphenyl-1-picryl hydrazyl (DPPH) is an organic compound composed of a stable organic radical. In the DPPH molecule, due to the presence of multiple electron-withdrawing —NO2 and large π bonds of the benzene ring, nitrogen free radical is stabilized. Its methanol solution is purple and has a maximum absorption peak at 517 nm. After the addition of an antioxidant, DPPH captures an electron to be paired with the free electron, and the purple fades and turns into a yellow substance. The absorption at 517 nm disappears, and the degree of fading is quantitatively related to the number of electrons it captures. Based on this principle, a spectrophotometer is used to detect the change of the absorbance of the DPPH radical and the sample solution, and the ability of the sample to provide hydrogen atoms and scavenge free radicals can be measured.
Preparation of DPPH solution: measuring exact amount of 2,2-diphenyl-1-picryl hydrazyl (DPPH) and dissolving in toluene to prepare a 0.2 mmol/L DPPH solution, stored at 0° C. in dark.
Preparation of test solution: Vc (vitamin C, positive control), compound of formula (I) (sample), silibinin (control) and lipoic acid (control). The sample solution was subjected to gradient dilution with toluene, and three sets of controls were separately dissolved in a test tube with a certain amount of toluene to prepare the same concentration gradient as the sample.
Sample liquid absorbance measurement: Take 2 mL of sample solution (Table 2 Vc, B, C), add 2 mL of DPPH solution with concentration of 2×10^−4 mol/L, mix and react in the dark at room temperature for 30 min, adjust to zero with toluene, and measure at 517 nm. The absorbance Ai was simultaneously measured for the absorbance Aj of 2 mL of toluene mixed with 2 mL of the sample solution and the absorbance Ao of 2 mL of DPPH solution mixed with 2 mL of toluene (the experimental results are shown in Table 3).
clearance rate (%)=[1−(Ai−Aj)/Ao]*100% Clearance calculation: […]

[2] = test system: Mice with Alcoholic Liver Injury; assay: Protective effect on alcoholic liver injury in mice (serum ALT, AST, TG); format: in vivo; conditions: 25 days, ethanol 3 g/kg/day
Procedure: The compound of formula (I) was prepared by the method of example 7. In order to study its protective effect on alcoholic liver injury in mice, the following animal model was designed.
Three-week-old 30-35 g SPF male mice were randomly divided into normal control group, model group, low-dose group, high-dose group and tiopronin positive control group after adaptive feeding for 3 days. The normal control group and model group were fed with basic feed every day; low dose group and high dose group were fed with basic diet every day and were given the compound of formula (I) of 10 mg/kg/day and 50 mg/kg/day, respectively; tiopronin positive control group was fed with basic feed and 50 mg/kg/day tiopronin. Ethanol 3 g/kg/day (0.01 mL/g) was given to the model group, low dose group, high dose group and tiopronin positive control group. The normal control group was given distilled water of the same volume. After 25 days, fasting for 2 hours after the last administration, glutamic pyruvic transaminase (ALT), glutamic oxaloacetic transaminase (AST) and triglyceride (TG) were measured in serum by decapitation.

In the case of `O=C(O)CCCCC1CCSS1` (centres unmarked) [C, Lipoic acid], the “DPPH Clearance rate” value ([1]; 1.76 ppm) is reported as 7.27%, the “DPPH Clearance rate” value ([1]; 8.80 ppm) is reported as 8.52% and the “DPPH Clearance rate” value ([1]; 21.12 ppm) is reported as 16.42%. For the same molecule, the “DPPH Clearance rate” value ([1]; 42.24 ppm) was 23.54%, the “DPPH Clearance rate” value ([1]; 79.20 ppm) was 36.45% and the “DPPH Clearance rate” value ([1]; 112.64 ppm) was 41.58%. The “DPPH Clearance rate” value ([1]; 281.60 ppm) was 54.23%, the “DPPH Clearance rate” value ([1]; 492.80 ppm) was 67.82% and the “DPPH Clearance rate” value ([1]; 792.00 ppm) was 72.01%. For the same molecule, the “DPPH Clearance rate” value ([1]; 915.20 ppm) was 73.69%.
For `COc1cc(C2Oc3cc([C@H]4Oc5cc(O)cc(O)c5C(=O)[C@@H]4O)ccc3OC2COC(=O)CCCCC2CCSS2)ccc1O` (stereo partly drawn) [Compound of Formula (I), (3-(4-hydroxy-3-methoxyphenyl)-6-((2R,3R)-3,5,7-trihydroxy-4-oxochroman-2-yl)-2,3-dihydrobenzo[b][1,4]dioxin-2-yl)methyl 5-(1,2-dithiolan-3-yl)pentanoate], the “DPPH Clearance rate” value ([1]; 1.76 ppm) was 12.28%, the “DPPH Clearance rate” value ([1]; 8.80 ppm) was 19.80% and the “DPPH Clearance rate” value ([1]; 21.12 ppm) was 32.16%. The “DPPH Clearance rate” value ([1]; 42.24 ppm) was 43.55%, the “DPPH Clearance rate” value ([1]; 79.20 ppm) was 69.42% and the “DPPH Clearance rate” value ([1]; 112.64 ppm) was 78.95%. For the same molecule, the “DPPH Clearance rate” value ([1]; 281.60 ppm) was 81.21%, the “DPPH Clearance rate” value ([1]; 492.80 ppm) was 86.70% and the “DPPH Clearance rate” value ([1]; 792.00 ppm) was 90.06%. The “DPPH Clearance rate” value ([1]; 915.20 ppm) was 93.52%, the “scavenging ability compared with silibinin (B) and lipoic acid (C) alone” value ([1]; DPPH free radicals, at the same concentration) was “better” and the “scavenging ability compared with the positive control Vc group” value ([1]; DPPH radical) was “slightly weaker”. For the same molecule, the “highest scavenging rate of DPPH radical” value ([1]; in the determined concentration range) was 93.52%, the ALT ([2]; 10 mg/kg/day) was 61.72 ± 10.37 U/L and the AST ([2]; 10 mg/kg/day) was 139.84 ± 18.95 U/L. It also gave a TG ([2]; 10 mg/kg/day) of 0.902 ± 0.19 mmol/L, an ALT ([2]; 50 mg/kg/day) of 57.21 ± 2.93 U/L and an AST ([2]; 50 mg/kg/day) of 134.56 ± 6.57 U/L. The TG ([2]; 50 mg/kg/day) was 0.873 ± 0.35 mmol/L.
`CC(S)C(=O)NCC(=O)O` (centres unmarked) [Tiopronin, tiopronin, reference compound] gave an ALT ([2]; 50 mg/kg/day) of 65.32 ± 8.79 U/L, an AST ([2]; 50 mg/kg/day) of 141.37 ± 18.75 U/L and a TG ([2]; 50 mg/kg/day) of 1.156 ± 0.33 mmol/L.
